Experiments:
Assay type in all cases: cell-based
CWR22RV1 cells = experiment: Cytotoxicity assay (AlamarBlue, 72 hours); details: 72 hours treatment, concentration not given
Method: (§1) Compound stock solutions of 10 mM were prepared with 100% DMSO and shaken for 10-15 seconds. The compound stock solutions were centrifuged at 12000 rpm (13523 rcf.) for 5 minutes and record the turbidity or precipitation state with a photo snapshot. The compound stock solutions were resuspended by shaking for 10-15 seconds, and serially diluted with 100% DMSO solution to make the compound concentration to 1000 μM, then to 100, 10, and 1 μM, and then 10-fold diluted with medium to 100, 10, 1, 0.1 μM (final 10% DMSO/medium) to complete compound test sample preparation. Compound treatment was performed by adding 10 μL of compound test sample to cells in each well of a 96-well plate (final 1% DMSO/medium).
(§2) Cells (CWR22Rv1 cells or VCaP cells) were cultured in RPMI-1640 medium supplemented with 10% fetal bovine serum, 10,000 U/mL penicillin and 10,000 μg/mL streptomycin. Cells were cultured at 37° C. in a humidified 5% CO2 incubator.
(§3) Cells were seeded in a 96-well plate (1×10^4 cells/well). 10 μL of the above compound test sample was added to each well of the 96-well plate on next day. After 72 hours of compound treatment, 10 μL of AlamaBlue reagent was added to each of 96 wells and incubated for 4 hours. The fluorescence value at Ex/Em=560/590 nm was read with a microplate reader, and the cytotoxicity (%) was calculated.
(§4) According to the above method, the compounds prepared above were subjected to cytotoxicity test with CWR22RV1 cells and VCaP cells.

VCaP cells = experiment: Cytotoxicity assay (AlamarBlue, 72 hours); details: 72 hours treatment, concentration not given
Method: as §1, §2, §3, §4

[1] = tested on: full-length androgen receptor; experiment: Western blot: degradation of full-length androgen receptor in CWR22RV1 cells; details: overnight
Method: CWR22Rv1 cells were maintained in RPMI medium supplemented with 10% fetal bovine serum and 1% penicillin-streptomycin at 37° C. in a humidified environment with 5% CO2.
CWR22Rv1 (5×10^5 cells) were seeded in each well of a 6-well plate and incubated overnight. Before compound treatment, the medium in the wells was replaced with a new medium. Cells were treated with different concentrations of compound overnight. Subsequently, cells were harvested by adding cold PBS and scraping cells. Cells were lysed according to general procedures and Western blot assays were performed to assess the ability of compounds to degrade full-length androgen receptor or androgen receptor splice variant 7. The cells or cell lysates were kept on ice at all times.
The following reagents were used in this experiment. Phosphate buffered saline (PBS) (Hyclone, SH30028.02), fetal bovine serum (Hyclone, SH30084.23, Lot AC14563276), penicillin-streptomycin solution (Hyclone, SV30010), 0.5% Trypsin-EDTA (Gibco, 15400-054), CST Lysis Buffer (CST-9803), Halt™ Protease and Phosphatase Inhibitor (ThermoFisher, 78442), Coomassie (Bradford) Protein Assay (Coomassie (Bradford) protein assay) (ThermoFisher, 23200), androgen receptor antibody (Cell Siginaling, CST-5153S), GAPDH antibody (Cell Siginaling, CST-5174S), HRP-goat-anti-rabbit (Jackson Immuno Research, 111-035-003), skim milk, SuperSignal West Pico Maximum Sensitivity substrate (ThermoFisher, 34080).
The compound prepared above was analyzed for its ability to degrade full-length androgen receptor and androgen receptor splice variant 7 in CWR22RV1 cells by Western blotting according to the method shown in item B.3-2 above.

[2] = compound concentration 0.1 (unit not given)
[3] = compound concentration 1 (unit not given)
[4] = compound concentration 10 (unit not given)

`Cc1ncsc1-c1ccc(CNC(=O)[C@@H]2C[C@H](O)CN2C(=O)[C@@H](NC(=O)C2CCC(C(=O)N3CCC(C#Cc4ccc(C5CCN(C6=Nn7c(nnc7C(F)(F)F)CC6)CC5)cc4)CC3)CC2)C(C)(C)C)cc1` (stereo in doubt) [Compound 34, 1-(3,3-dimethyl-2-(4-(4-((4-(1-(3-(trifluoromethyl)-7,8-dihydro-[1,2,4]triazolo[4,3-b]pyridazin-6-yl)piperidin-4-yl)phenyl)ethynyl)piperidine-1-carbonyl)cyclohexane-1-carboxamido)butanoyl)-4-hydroxy-N-(4-(4-methylthiazol-5-yl)benzyl)pyrrolidine-2-carboxamide] was tested. Which “Cytotoxicity, CWR22RV1 cells (cell viability %)” value (CWR22RV1 cells) did it give?
Its value is “+ (60-80% : +)”.

And the “Cytotoxicity, VCaP cells (cell viability %)” value (VCaP cells)?
The value was “+++ (<40% : +++)”.

Which “Cytotoxicity, CWR22RV1 cells (cell viability %)” value (CWR22RV1 cells) does the source give for `Cc1ncsc1-c1ccc(CNC(=O)[C@@H]2C[C@H](O)CN2C(=O)[C@@H](NC(=O)CCC#Cc2ccc(COc3ccc(C4CCN(C5=Nn6c(nnc6C(F)(F)F)CC5)CC4)cc3)cc2)C(C)(C)C)cc1` [Compound 2, (2S,4S)-1-((S)-3,3-dimethyl-2-(5-(4-((4-(1-(3-(trifluoromethyl)-7,8-dihydro-[1,2,4]triazolo[4,3-b]pyridazin-6-yl)piperidin-4-yl)phenoxy)methyl)phenyl)pent-4-ynamido)butanoyl)-4-hydroxy-N-(4-(4-methylthiazol-5-yl)benzyl)pyrrolidine-2-carboxamide] here?
The value was “+ (60-80% : +)”.

How did the “Cytotoxicity, CWR22RV1 cells (cell viability %)” value (CWR22RV1 cells) turn out when `Cc1ncsc1-c1ccc(CNC(=O)[C@@H]2C[C@H](O)CN2C(=O)[C@@H](NC(=O)COCCCOCCNC(=O)COc2ccc(C3CCN(C4=Nn5c(nnc5C(F)(F)F)CC4)CC3)cc2)C(C)(C)C)cc1` [Compound 3, (2S,4S)-1-((S)-2-tert-butyl-4,14-dioxo-15-(4-(1-(3-(trifluoromethyl)-7,8-dihydro-[1,2,4]triazolo[4,3-b]pyridazin-6-yl)piperidin-4-yl)phenoxy)-6,10-dioxa-3,13-diazapentadecane)-4-hydroxy-N-(4-(4-methylthiazol-5-yl)benzyl)pyrrolidine-2-carboxamide] was run?
The value was “++ (40-60% : ++)”.

How did the “Cytotoxicity, CWR22RV1 cells (cell viability %)” value (CWR22RV1 cells) turn out when `Cc1ncsc1-c1ccc(CNC(=O)[C@@H]2C[C@H](O)CN2C(=O)[C@@H](NC(=O)CCOCCOCCN2CCN(c3ccc(C#Cc4ccc(C5CCN(C6=Nn7c(nnc7C(F)(F)F)CC6)CC5)cc4)cn3)CC2)C(C)(C)C)cc1` [Compound 4, (2S,4S)-1-((S)-3,3-dimethyl-2-(3-(2-(2-(4-(5-((4-(1-(3-(trifluoromethyl)-7,8-dihydro-[1,2,4]triazolo[4,3-b]pyridazin-6-yl)piperidin-4-yl)phenyl)ethynyl)pyridin-2-yl)piperazin-1-yl)ethoxy)ethoxy)propanamido)butanoyl)-4-hydroxy-N-(4-(4-methylthiazol-5-yl)benzyl)pyrrolidine-2-carboxamide] was run?
Its value is “+ (60-80% : +)”.

Which “Cytotoxicity, CWR22RV1 cells (cell viability %)” value (CWR22RV1 cells) does the source give for `Cc1cc([C@H](C(=O)N2C[C@H](O)C[C@H]2C(=O)N[C@@H](CC(=O)NCCOCCCCOc2ccc(C3CCN(C4=Nn5c(nnc5C(F)(F)F)CC4)CC3)cc2)c2ccc(-c3scnc3C)cc2)C(C)C)on1` [Compound 6, (2S,4R)-4-hydroxy-1-((R)-3-methyl-2-(3-methylisoxazol-5-yl)butanoyl)-N—((S)-1-(4-(4-methylthiazol-5-yl)phenyl)-3-oxo-3-(2-(4-(4-(1-(3-(trifluoromethyl)-7,8-dihydro-[1,2,4]triazolo[4,3-b]pyridazin-6-yl)piperidin-4-yl)phenoxy)butoxy)ethylamino)propyl)pyrrolidine-2-carboxamide] here?
Its value is “− (<80% : −)”.

With `Cc1ncsc1-c1ccc(CNC(=O)[C@@H]2C[C@H](O)CN2C(=O)C(NC(=O)CC2O[C@H](CNC(=O)COc3ccc(C4CCN(C5=Nn6c(nnc6C(F)(F)F)CC5)CC4)cc3)[C@@H](O)[C@H]2O)C(C)(C)C)cc1` (stereo partly drawn) [Compound 7, 1-(2-(2-((3R,4S,5R)-3,4-dihydroxy-5-((2-(4-(1-(3-(trifluoromethyl)-7,8-dihydro-[1,2,4]triazolo[4,3-b]pyridazin-6-yl)piperidin-4-yl)phenoxy)acetamido)methyl)tetrahydrofuran-2-yl)acetamido)-3,3-dimethylbutanoyl)-4-hydroxy-N-(4-(4-methylthiazol-5-yl)benzyl)pyrrolidine-2-carboxamide] as the molecule, how does the “Degradation ability for full-length androgen receptor (residual rate %)” value (shortened to “Degradation ability … (residual rate %)”) [1, 2] read?
Its value is “− (>80%; −)”.

And the “Degradation ability … (residual rate %)” value [1, 3]?
The value was “− (>80%; −)”.

What about the “Degradation ability … (residual rate %)” value [1, 4] of the same molecule?
The value was “− (>80%; −)”.

What about the “Cytotoxicity, CWR22RV1 cells (cell viability %)” value (CWR22RV1 cells) of the same molecule?
Its value is “− (<80% : −)”.

For `Cc1ncsc1-c1ccc(CNC(=O)[C@@H]2C[C@H](O)CN2C(=O)[C@@H](NC(=O)COCCCCOc2ccc(C3CCN(C4=Nn5c(nnc5-c5ccc(C(F)(F)F)cc5)CC4)CC3)cc2)C(C)(C)C)cc1` [Compound 8, (2S,4S)-1-((S)-3,3-dimethyl-2-(2-(4-(4-(1-(3-(4-(trifluoromethyl)phenyl)-7,8-dihydro-[1,2,4]triazolo[4,3-b]pyridazin-6-yl)piperidin-4-yl)phenoxy)butoxy)acetamido)butanoyl)-4-hydroxy-N-(4-(4-methylthiazol-5-yl)benzyl)pyrrolidine-2-carboxamide], which “Degradation ability … (residual rate %)” value [1, 2] is on record?
The value was “− (>80%; −)”.

What about the “Degradation ability … (residual rate %)” value [1, 3] of the same molecule?
The value was “+ (60-80%: +)”.

What about the “Degradation ability … (residual rate %)” value [1, 4] of the same molecule?
The value was “+++ (<40%: +++)”.

And the “Cytotoxicity, CWR22RV1 cells (cell viability %)” value (CWR22RV1 cells)?
The value was “+++ (<40% : +++)”.

With `Cc1ncsc1-c1ccc(CNC(=O)[C@@H]2C[C@H](O)CN2C(=O)[C@@H](NC(=O)CCCN2CCC(C#Cc3ccc(C4CCN(C5=Nn6c(nnc6C(F)(F)F)CC5)CC4)cc3)CC2)C(C)(C)C)cc1` [Compound 13, (2S,4S)-1-((S)-3,3-dimethyl-2-(4-(4-((4-(1-(3-(trifluoromethyl)-7,8-dihydro-[1,2,4]triazolo[4,3-b]pyridazin-6-yl)piperidin-4-yl)phenyl)ethynyl)piperidin-1-yl)butanamido)butanoyl)-4-hydroxy-N-(4-(4-methylthiazol-5-yl)benzyl)pyrrolidine-2-carboxamide] as the molecule, how does the “Cytotoxicity, CWR22RV1 cells (cell viability %)” value (CWR22RV1 cells) read?
Its value is “+++ (<40% : +++)”.

And the “Cytotoxicity, VCaP cells (cell viability %)” value (VCaP cells)?
Its value is “+++ (<40% : +++)”.

With `Cc1ncsc1-c1ccc(CNC(=O)[C@@H]2C[C@H](O)CN2C(=O)[C@@H](NC(=O)COCCCOc2ccc(C3CCN(C4=Nn5c(nnc5C(F)(F)F)CC4)CC3)cc2)C(C)(C)C)cc1` [Compound 20, (2S,4S)-1-((S)-3,3-dimethyl-2-(2-(3-(4-(1-(3-(trifluoromethyl)-7,8-dihydro-[1,2,4]triazolo[4,3-b]pyridazin-6-yl)piperidin-4-yl)phenoxy)propoxy)acetamido)butanoyl)-4-hydroxy-N-(4-(4-methylthiazol-5-yl)benzyl)pyrrolidine-2-carboxamide] as the molecule, how does the “Cytotoxicity, CWR22RV1 cells (cell viability %)” value (CWR22RV1 cells) read?
Its value is “+++ (<40% : +++)”.

What about the “Cytotoxicity, VCaP cells (cell viability %)” value (VCaP cells) of the same molecule?
The value was “++ (40-60% : ++)”.

What does the source list for `Cc1ncsc1-c1ccc(CNC(=O)C2CC(O)CN2C(=O)C(NC(=O)CC2O[C@H](COc3ccc(C4CCN(C5=Nn6c(nnc6C(F)(F)F)CC5)CC4)cc3)[C@@H](O)[C@H]2O)C(C)(C)C)cc1` (stereo partly drawn) [Compound 29, 1-(2-(2-((3R,4S,5R)-3,4-dihydroxy-5-((4-(1-(3-(trifluoromethyl)-7,8-dihydro-[1,2,4]triazolo[4,3-b]pyridazin-6-yl)piperidin-4-yl)phenoxy)methyl)tetrahydrofuran-2-yl)acetamido)-3,3-dimethylbutanoyl)-4-hydroxy-N-(4-(4-methylthiazol-5-yl)benzyl)pyrrolidine-2-carboxamide]?
Degradation ability for full-length androgen receptor (residual rate %) [1, 2]: + (60-80%: +); Degradation ability for full-length androgen receptor (residual rate %) [1, 3]: − (>80%; −); Degradation ability for full-length androgen receptor (residual rate %) [1, 4]: − (>80%; −); Cytotoxicity, CWR22RV1 cells (cell viability %) (CWR22RV1 cells): − (<80% : −)

Source: patent publication US12152035B2, “Androgen receptor binding molecule and use thereof” (Industrial Technology Research Institute, priority 2020, dated 2024)
